Values after ≈ are worked out from the molar mass of the structure shown. Values belong to the molecule of their own block, whether it stands above or below them.
How the values were obtained:
RAW264.7 [1] = assay: Antiinflammatory activity in mouse RAW264.7 cells assessed as reduction in LPS-induced nitric oxide production; format: functional, cell-based; conditions: Mus musculus, RAW264.7
[2] = Antioxidant activity assessed as DPPH radical scavenging activity; format: functional
RAW264.7 [3] = assay: Antiinflammatory activity against mouse RAW264.7 cells assessed as inhibition of LPS-induced COX2 expression; format: functional, cell-based
Staphylococcus aureus [4] = assay: Antibacterial activity against Staphylococcus aureus ATCC 43300 assessed as inhibition of bacterial growth; format: functional, organism-based
Staphylococcus aureus [5] = assay: Antibacterial activity against Staphylococcus aureus ATCC 29213 assessed as inhibition of bacterial growth; format: functional, organism-based
Staphylococcus aureus [6] = assay: Antibacterial activity against Staphylococcus aureus ATCC 25923 assessed as inhibition of bacterial growth; format: functional, organism-based
[7] = Antioxidant activity assessed as DPPH radical scavenging activity incubated for 30 mins by spectrophotometric analysis; format: functional
[8] = Antioxidant activity assessed as DPPH radical scavenging activity at 20 uM relative to control; format: functional
[9] = Antioxidant activity assessed as ABTS radical scavenging activity; format: functional
HL-60 = assay: Cytotoxicity against human HL-60 cells assessed as reduction in cell viability; format: functional, cell-based
A549 = assay: Cytotoxicity against human A549 cells assessed as reduction in cell viability; format: functional, cell-based
K562 = assay: Cytotoxicity against human K562 cells assessed as reduction in cell viability; format: functional, cell-based
[10] = molecular target: Cyclin-dependent kinase 1/cyclin B (Homo sapiens, UniProt P06493); assay: Inhibition of CDK1/Cyclin B (unknown origin) in presence of ATP by scintillation counter analysis; format: protein-complex assay
RAW264.7 [11] = assay: Antiinflammatory activity in mouse RAW 264.7 cells assessed as inhibition of LPS-induced nitric oxide production measured after 48 hrs by Griess reagent assay; format: functional, cell-based; conditions: RAW264.7, 48 h
[12] = Inhibition of elastase (unknown origin); parameters: species or system Homo sapiens
Mus musculus [13] = assay: Anxiolytic activity in mouse assessed as number of entries in open arm at 5 mg/kg, po measured after 60 mins by elevated plus maze test; format: functional; conditions: 1 h
Mus musculus [14] = assay: Anxiolytic activity in mouse assessed as increase in time spent in open arm at 5 mg/kg, po measured after 60 mins by elevated plus maze test; format: functional; conditions: 1 h
[15] = Antioxidant activity assessed as hydrogen peroxide scavenging activity; format: functional
SGC-7901 = assay: Cytotoxicity against human SGC-7901 cells assessed as reduction in cell viability; format: functional, cell-based; conditions: sgc-7901
BV-2 = assay: Antiinflammatory activity in mouse BV2 cells assessed as reduction in LPS-induced nitric oxide production; format: functional, cell-based
SK-OV-3 = assay: Cytotoxicity against human SK-OV-3 cells assessed as reduction in cell viability; format: functional, cell-based

IC50 (RAW264.7 [1]): 14.4 µM
Compound: C=Cc1ccc(CO)c2c1-c1ccc(O)c(C)c1CC2

IC50 ([2]; read-out: IC50): 16.2 µM
Compound: Oc1ccc2c(c1)CCc1cc(O)cc(O)c1-2

IC50 ([2]; read-out: IC50): 12.9 µM
Compound: COc1c(O)cc2ccc3c(OC)c(O)ccc3c2c1OC

IC50 (RAW264.7 [1]): 7.4 µM
Compound: C=Cc1cc(O)cc2c1-c1cc(-c3c(O)cc(C=C)c4c3ccc3c(C)c(O)ccc34)c(O)c(C)c1CC2

IC50 [10]: 0.07 µM
Compound: COc1cc2c(c(O)c1OC)CCc1cc(O)c(OC)c(OC)c1-2

IC50 (RAW264.7 [11]): 4.9 µM
IC50 [12]: 5.5 µM
Compound: C=Cc1c(C)c(O)cc2c1CCc1c-2ccc(O)c1C

EC50 [2]: 7.7 µM
Compound: COc1cc(O)c2c(c1-c1c(OC)cc(O)c3c1CCc1cc(O)ccc1-3)CCc1cc(O)ccc1-2

IC50 ([2]; read-out: IC50): 59.8 µM
Compound: COc1cc(O)cc2cc(O)c3cccc(OC)c3c12

IC50 (RAW264.7 [1]): 15.1 µM
Compound: C=Cc1cc(O)cc2c1-c1ccc(O)c(C)c1CC2 [EFFUSOL]
Activity (Mus musculus [13]): 7.8
Time (Mus musculus [14]): 75.5 s

IC50 [2]: 15.1 µg/mL
Compound: COc1cc(O)c2c(c1-c1c(OC)cc(O)c3c1ccc1cc(O)ccc13)CCc1cc(O)ccc1-2
IC50 (HL-60; Homo sapiens, HL-60, read-out: IC50): 7.3 µg/mL

IC50 (RAW264.7 [11]): 3.1 µM
Compound: C=Cc1c(C)c(O)cc2c1-c1ccc(O)c(C)c1CC2
Activity (Mus musculus [13]): 6.6
Time (Mus musculus [14]): 58.8 s

The next lines start with the molecule.

Compound: Oc1ccc(/C=C/c2cc(O)cc(O)c2)cc1 [RESVERATROL]
EC50 [2]: 21.2 µM
IC50 ([2]; read-out: IC50): 28.7 µM

Compound: COc1cc(OC)c2c(ccc3cc(OC)c(O)cc32)c1
IC50 (RAW264.7 [3]): 1.8 µM

Compound: COc1cc(O)c2c(c1)CCc1cc(O)c(-c3c(/C=C/c4cccc(O)c4)cc(O)cc3OC)cc1-2
EC50 [2]: 47.3 µM

Compound: COc1cc(O)c(-c2c(O)cc(OC)c3c2ccc2cc(O)ccc23)c2c1-c1ccc(O)cc1CC2 [CIRRHOPETALANTHRIN]
IC50 (Staphylococcus aureus [4]): 25 µg/mL (≈ 52 µM)
IC50 (Staphylococcus aureus [5]): 25 µg/mL (≈ 52 µM)
IC50 (Staphylococcus aureus [6]): 25 µg/mL (≈ 52 µM)

Compound: O=C1O[C@H]([C@@H](O)CO)C(O)=C1O [ASCORBIC ACID]
IC50 [7]: 0.41 µM
Activity [8]: 2.9%
Activity [9]: 88.7%
IC50 ([2]; read-out: IC50): 18 µM

Compound: COc1ccc(O)c(C(C)(C)C)c1.COc1ccc(O)cc1C(C)(C)C [BUTYLATED HYDROXYANISOLE]
IC50 [2]: 9.3 µg/mL

Compound: COc1cc(O)c2c(c1)CCc1cc(-c3cc(OC)c4c(c3O)CCc3cc(O)ccc3-4)c(O)cc1-2
IC50 (HL-60; hl-60): 1.3 µM
IC50 (A549): 9.2 µM
IC50 (K562): 6.1 µM

Compound: O=c1cc(N2CCOCC2)oc2c(-c3ccccc3)cccc12 [LY-294002]
IC50 [12]: 4.8 µM

Compound: Cc1c(C)c2c(c(C)c1O)CCC(C)(C(=O)O)O2 (stereo not given) [TROLOX]
IC50 ([2]; read-out: IC50): 11.7 µM

Compound: C=Cc1c(C)c(O)cc2c1ccc1c(C)c(O)ccc12
IC50 (RAW264.7 [11]): 3.2 µM

Compound: COc1cc(O)c2c(ccc3cc(O)ccc32)c1-c1c(OC)cc(O)c2c1ccc1cc(O)ccc12
IC50 [2]: 9.4 µg/mL

Compound: Oc1cc2c3c(c1)COc1cc(O)cc(c1-3)CC2
IC50 [15]: 0.08 µM
IC50 ([2]; read-out: IC50): 6.6 µM

Compound: COc1cc(O)c2c(c1)CCc1cc(-c3c(OC)cc(O)c4c3CCc3cc(O)ccc3-4)c(O)cc1-2
IC50 (HL-60; hl-60): 4 µM
IC50 (SGC-7901): 6.1 µM
IC50 (A549): 1.2 µM
IC50 (K562): 2.8 µM

Compound: COc1cc(O)cc2ccc3cccc(O)c3c12 [MOSCATIN]
IC50 ([2]; read-out: IC50): 9.2 µM

Compound: COc1ccc2ccc3ccc(O[C@@H]4O[C@H](CO)[C@@H](O)[C@H](O)[C@H]4O)c(O)c3c2c1
IC50 (BV-2): 10.6 µg/mL
IC50 ([2]; read-out: IC50): 0.2 µM

Compound: O=c1c(O)c(-c2ccc(O)c(O)c2)oc2cc(O)cc(O)c12 [QUERCETIN]
IC50 (RAW264.7 [1]): 6.6 µM

Compound: COc1cc(O)c2c(c1)CCc1cc(O)c(-c3c(OC)cc(O)c4c3CCc3c-4ccc(O)c3-c3c(OC)cc(O)c4c3CCc3cc(O)ccc3-4)cc1-2
IC50 (SK-OV-3): 41.5 µg/mL (≈ 57.4 µM)
IC50 [2]: 4.8 µg/mL

Compound: CNC(=N)NCCC[C@H](N)C(=O)O [TILARGININE]
IC50 (BV-2): 16.3 µM

Compound: N=C(N)NN [PIMAGEDINE]
IC50 ([2]; read-out: IC50): 21.7 µM

— ChEMBL document CHEMBL5244207, “Phenanthrenes: A Promising Group of Plant Secondary Metabolites” (J Nat Prod, 2018)
